Earlier results, collected in the PKSmart pharmacokinetics tables (Seal et al. 2025).

Assay: Lombardo, Berellini, Obach 2018, Drug Metab Dispos 46:1466, doi 10.1124/dmd.118.082966
Conditions: human; for MRT / Vd / clearance / half-life: in vivo, iv; for fraction unbound: plasma

CC(NC(CCc1ccccc1)C(=O)O)C(=O)N1Cc2ccccc2CC1C(=O)O (configuration not stated)
MRT: 2.3 h
Vd: 0.13 L/kg
clearance: 0.93 mL/min/kg
half-life: 138 min

CCCN[C@H]1CCc2nc(N)sc2C1
MRT: 16.1 h
Vd: 7 L/kg
clearance: 7.2 mL/min/kg
half-life: 744 min
fraction unbound: 0.85

Cc1c(O)ccc2c1OC[C@@H](c1ccc(O)cc1)[C@H]2c1ccc(O)cc1
MRT: 2.38 h
Vd: 1.2 L/kg
clearance: 8.42 mL/min/kg
half-life: 318 min

CC(=O)Nc1c(I)c(C(=O)O)c(I)c(N(C)C(C)=O)c1I
MRT: 1 h
Vd: 0.17 L/kg
clearance: 2.7 mL/min/kg
half-life: 78 min
fraction unbound: 1

Oc1cccc(-c2c3nc(c(-c4cccc(O)c4)c4ccc([nH]4)c(-c4cccc(O)c4)c4ccc([nH]4)c(-c4cccc(O)c4)c4nc2CC4)C=C3)c1
clearance: 0.06 mL/min/kg
half-life: 5490 min
fraction unbound: 0.14

C[C@H]1O[C@@H](O[C@H]2[C@@H](O)C[C@H](O[C@H]3[C@@H](O)C[C@H](O[C@H]4CC[C@@]5(C)[C@H](CC[C@@H]6[C@@H]5C[C@@H](O)[C@]5(C)[C@@H](C7=CC(=O)OC7)CC[C@]65O)C4)O[C@@H]3C)O[C@@H]2C)C[C@H](O)[C@@H]1O
MRT: 40 h
Vd: 4.1 L/kg
clearance: 1.7 mL/min/kg
half-life: 2280 min

CN1CCN(c2ncc(-c3cc(Cl)cc(Cl)c3Cl)c(N)n2)CC1
MRT: 12.3 h
Vd: 15.3 L/kg
clearance: 20.9 mL/min/kg
half-life: 659 min

CN1CCN(C(=O)OC2c3nccnc3C(=O)N2c2ccc(Cl)cn2)CC1 (configuration not stated)
MRT: 6.6 h
Vd: 1.3 L/kg
clearance: 3.3 mL/min/kg
half-life: 312 min

COc1ccc2c3c1O[C@H]1[C@@H](O)CC[C@H]4[C@@H](C2)N(C)CC[C@@]341
MRT: 4.08 h
Vd: 1.07 L/kg
clearance: 4.21 mL/min/kg
half-life: 205 min

Cc1c(C)c2ccc(OCCCN3CCN(Cc4ccc(Cl)cc4)CC3)cc2oc1=O
MRT: 16.5 h
Vd: 1.3 L/kg
clearance: 1.3 mL/min/kg
half-life: 1150 min
fraction unbound: 0.05

CO[C@H]1/C=C/O[C@@]2(C)Oc3c(C)c(O)c4c(O)c(c(/C=N/N5CCN(C)CC5)c(O)c4c3C2=O)NC(=O)C(C)=CC=CC(C)[C@H](O)[C@@H](C)[C@@H](O)[C@@H](C)[C@H](OC(C)=O)[C@@H]1C (some centres not stated)
MRT: 4.6 h
Vd: 0.97 L/kg
clearance: 3.5 mL/min/kg

C[N+]1(CC2CC2)[C@@H]2C[C@@H](OC(=O)C(CO)c3ccccc3)C[C@H]1[C@@H]1O[C@@H]12 (some centres not stated)
MRT: 0.74 h
Vd: 1.12 L/kg
clearance: 25 mL/min/kg
half-life: 49.8 min

CN1CCN(CCCCN2C(=O)CN(/N=C/c3ccc(-c4ccc(Cl)cc4)o3)C2=O)CC1
MRT: 100 h
Vd: 13 L/kg
clearance: 2.4 mL/min/kg
half-life: 4740 min
fraction unbound: 0.06

COc1cc2c(cc1OC)[C@H]1C[C@@H](OC(=O)C(N)C(C)C)[C@H](CC(C)C)CN1CC2 (some centres not stated)
MRT: 12.8 h
Vd: 1.31 L/kg
clearance: 1.71 mL/min/kg
half-life: 1080 min
fraction unbound: 0.01

C[C@](N)(Cc1ccc(O)c(O)c1)C(=O)O
MRT: 3.3 h
Vd: 0.69 L/kg
clearance: 3.5 mL/min/kg
half-life: 354 min

CC(C)(C)OC(=O)NC1CCCCC/C=C\[C@@H]2C[C@@]2(C(=O)NS(=O)(=O)C2CC2)NC(=O)C2C[C@@H](OC(=O)N3Cc4cccc(F)c4C3)CN2C1=O (some centres not stated)
MRT: 0.32 h
Vd: 0.22 L/kg
clearance: 11.5 mL/min/kg
half-life: 109 min
fraction unbound: 0.02

CC[C@H]1OC(=O)C(C)C(=O)C(C)[C@@H](O[C@@H]2O[C@H](C)C[C@H](N(C)C)[C@H]2O)[C@](C)(OC)CC(C)C(=O)C(C)[C@H]2N(CCCCn3cnc(-c4cccnc4)c3)C(=O)O[C@]12C (some centres not stated)
MRT: 3.6 h
Vd: 3 L/kg
clearance: 14 mL/min/kg
half-life: 720 min
fraction unbound: 0.41

CC(C(O)c1ccc(O)cc1)N1CCC(Cc2ccccc2)CC1 (configuration not stated)
MRT: 4.9 h
Vd: 19 L/kg
clearance: 64.6 mL/min/kg
half-life: 259 min

O=C(NC1CCN(CCCCC2(C(=O)NCC(F)(F)F)c3ccccc3-c3ccccc32)CC1)c1ccccc1-c1ccc(C(F)(F)F)cc1
MRT: 31.2 h
Vd: 16.3 L/kg
clearance: 8.7 mL/min/kg
half-life: 2380 min
fraction unbound: 0.002

COC(=O)CC[C@@H]1N=C(c2ccccn2)c2cc(Br)ccc2-n2c(C)cnc21
MRT: 0.5 h
Vd: 0.44 L/kg
clearance: 15 mL/min/kg
half-life: 45 min

O=C(NCCO[N+](=O)[O-])c1cccnc1
MRT: 2.7 h
Vd: 1.4 L/kg
clearance: 8.9 mL/min/kg
half-life: 216 min
fraction unbound: 0.76

CCCCCCCCCC=CCCC(=O)N=CC(=O)N[C@@H]1[C@@H](O)[C@@H](O)[C@@H](Nc2[nH]cnc3ncnc2-3)O[C@H]1[C@@H](O)CO
MRT: 1.1 h
Vd: 0.17 L/kg
clearance: 2.7 mL/min/kg
half-life: 78 min

COCCCN1CCC(NC(=O)c2cc(Cl)c(N)c3c2OCC3)CC1
MRT: 32.2 h
Vd: 8.73 L/kg
clearance: 4.55 mL/min/kg
half-life: 1350 min
fraction unbound: 0.7

NC[C@H]1OB(O)c2c(OCCCO)cccc21
MRT: 9.6 h
Vd: 2.37 L/kg
clearance: 4.1 mL/min/kg
half-life: 696 min

CC(=O)Nc1ccc(OC[C@H](O)CNC(C)C)cc1
clearance: 2.28 mL/min/kg
half-life: 732 min
fraction unbound: 0.93

CS(=O)(=O)c1ccc(C2=C(c3ccccc3)C(=O)OC2)cc1
MRT: 10.8 h
Vd: 1.3 L/kg
clearance: 2 mL/min/kg
half-life: 450 min
fraction unbound: 0.13

COc1cccc(OC)c1C(=O)NC1C(=O)N2C(C(=O)O)C(C)(C)S[C@H]12 (some centres not stated)
MRT: 0.8 h
Vd: 0.32 L/kg
clearance: 6.6 mL/min/kg
half-life: 38.4 min
fraction unbound: 0.43

Cc1cn[nH]c1
MRT: 7.94 h
Vd: 0.35 L/kg
clearance: 0.73 mL/min/kg
half-life: 265 min

COc1ccc2[n-]c([S+](O)Cc3ncc(C)c(OC)c3C)nc2c1 (configuration not stated)
MRT: 0.48 h
Vd: 0.24 L/kg
clearance: 8.4 mL/min/kg
half-life: 34.8 min

C[C@H](/C=C/[C@H](C)C(C)(C)O)[C@H]1CC[C@H]2/C(=C/C=C3C[C@@H](O)C[C@H](O)C3)CCC[C@]12C
MRT: 7.7 h
Vd: 0.41 L/kg
clearance: 0.89 mL/min/kg
half-life: 318 min

CC1(C)O[C@@H]2[C@@H](CO[C@@]3(COS(N)(=O)=O)OC(C)(C)O[C@@H]23)O1
MRT: 48.7 h
Vd: 0.8 L/kg
clearance: 0.27 mL/min/kg
half-life: 2090 min
fraction unbound: 0.72

COc1cc(C(=O)C(=O)N2CCCCC2C(=O)OC(CCCc2cccnc2)CCCc2cccnc2)cc(OC)c1OC (configuration not stated)
MRT: 2.62 h
Vd: 1.34 L/kg
clearance: 8.5 mL/min/kg
half-life: 66 min

Nc1cc(N2CCCCC2)nc(N)[n+]1[O-]
MRT: 1.3 h
Vd: 0.9 L/kg
clearance: 11.5 mL/min/kg
half-life: 90 min

C/C(=C\c1csc(C)n1)[C@@H]1C[C@@H]2O[C@]2(C)CCC[C@H](C)[C@H](O)C(C)C(=O)C(C)(C)[C@@H](O)CC(=O)O1 (some centres not stated)
MRT: 111 h
Vd: 14.4 L/kg
clearance: 2.17 mL/min/kg
half-life: 5540 min
fraction unbound: 0.22

O=C(Cc1cccs1)NC1C(=O)N2C(C(=O)[O-])=C(C[n+]3ccccc3)CS[C@H]12 (some centres not stated)
MRT: 2.3 h
Vd: 0.46 L/kg
clearance: 3.3 mL/min/kg
half-life: 90 min
fraction unbound: 0.8

COC(=O)C(c1ccccc1Cl)N1CCc2sccc2C1 (configuration not stated)
MRT: 1.42 h
Vd: 2.01 L/kg
clearance: 23.6 mL/min/kg
half-life: 304 min
fraction unbound: 0.02

CC(C)(C)[N+](O)=Cc1ccc(S(=O)(=O)O)cc1S(=O)(=O)[O-]
MRT: 2.2 h
Vd: 0.18 L/kg
clearance: 1.35 mL/min/kg
half-life: 216 min
fraction unbound: 0.6

COc1ccc(CC2c3cc(OC)c(OC)cc3CC[N+]2(C)CCC(=O)OCCCCCOC(=O)CC[N+]2(C)CCc3cc(OC)c(OC)cc3C2Cc2ccc(OC)c(OC)c2)cc1OC (configuration not stated)
MRT: 0.29 h
Vd: 0.1 L/kg
clearance: 5.7 mL/min/kg
half-life: 18.6 min
fraction unbound: 0.52

O=C(O[C@H]1CN2CCC1CC2)N1CCc2ccccc2[C@@H]1c1ccccc1
MRT: 65 h
Vd: 8.2 L/kg
half-life: 3120 min

O=C1N=C(c2ccccc2Cl)c2cc(Cl)ccc2NC1O (configuration not stated)
MRT: 22 h
Vd: 1.3 L/kg
clearance: 1 mL/min/kg
half-life: 1020 min

NC(=O)CN1CC(O)CC1=O (configuration not stated)
MRT: 4.9 h
Vd: 0.55 L/kg
clearance: 1.8 mL/min/kg
half-life: 450 min

C[C@H]1COc2c(N3CCN(C)CC3)c(F)cc3c(=O)c(C(=O)O)cn1c23
MRT: 11 h
Vd: 1.2 L/kg
clearance: 1.9 mL/min/kg
half-life: 528 min

COc1cc2c(cc1OC)CN(CCc1ccc(NC(=O)c3cc(OC)c(OC)cc3NC(=O)c3cnc4ccccc4c3)cc1)CC2
MRT: 38 h
Vd: 6.4 L/kg
clearance: 2.8 mL/min/kg
half-life: 1740 min

CCN(CC)CCN1C(=O)c2c(c3c4cccc(Cl)c4n([C@@H]4O[C@H](CO)[C@@H](OC)[C@H](O)[C@H]4O)c3c3[nH]c4c(Cl)cccc4c23)C1=O
MRT: 45.4 h
Vd: 8.9 L/kg
clearance: 3.13 mL/min/kg
half-life: 2930 min

NC(Cc1ccccn1)c1ccccc1 (configuration not stated)
MRT: 15.1 h
Vd: 1.62 L/kg
clearance: 1.8 mL/min/kg
half-life: 624 min

Cc1cc(=O)n(-c2ccccc2)[nH]1
MRT: 2.65 h
Vd: 0.23 L/kg
clearance: 1.42 mL/min/kg
half-life: 142 min
fraction unbound: 0.89

CC(C)(C)c1[nH]cnc1/C=c1\[nH]c(=O)/c(=C/c2ccccc2)[nH]c1=O
MRT: 6.7 h
Vd: 3 L/kg
clearance: 7.4 mL/min/kg
half-life: 378 min

Nc1cc(OCC2CC2)c(C(=O)NC2CN3CCC2CC3)cc1Cl (configuration not stated)
MRT: 12.3 h
Vd: 3.9 L/kg
clearance: 5.2 mL/min/kg
half-life: 810 min
